Reference: US20030118627A1 (DABUR RESEARCH FOUNDATION, priority 2001, published 2003)

What was measured:
MCF7 = test: MTT cytotoxicity assay, MCF7 breast; format: cell-based; conditions: Homo sapiens, MCF7 breast, read-out: Percent cytotoxicity; for cytotoxicity at 1000 µM: 1.0 mM; for cytotoxicity at 2500 µM: 2.5 mM; for cytotoxicity at 4000 µM: 4 mM; for cytotoxicity at 5000 µM: 5 mM; for cytotoxicity at 10000 µM: 10 mM
Experimental: (§1) Briefly, a […] MTT cytotoxicity assay was performed, which is based on the principle of uptake of MTT (3-(4,5-dimethylthiazol-2-yl)-2,5-diphenyl tetrazolium bromide), a tetrazolium salt, by the metabolically active cells where it is metabolized by active mitochondria into a blue colored formazan product that is read spectrophoto-metrically. MTT was dissolved in phosphate buffered saline with a pH of 7.4 to obtain an MTT concentration of 5 mg/ml; the resulting mixture was filtered through a 0.22 micron filter to sterilize and remove a small amount of insoluble residue. For each type of tumor cell, 20,000 to 50,000 cells were seeded in a 96-well culture plate and incubated with the combination in a CO2 incubator for 24 hours. […] The assay was terminated after 24 hours by adding 100 ug (20 ul) of MTT to each well, then incubating for additional one hour, and finally adding 50 ul of 10% SDS-0.01N HCl to each well to lyse the cells and dissolve formazan. After incubating for one hour, the plate was read spectrophotometrically at 540 nm and the percentage cytotoxicity calculated.

DU145 = test: MTT cytotoxicity assay, DU145 prostate; format: cell-based; conditions: Homo sapiens, read-out: Percent cytotoxicity; for cytotoxicity at 1000 µM: DU-145, 1.0 mM; for cytotoxicity at 2500 µM: DU-145, 2.5 mM; for cytotoxicity at 4000 µM: DU-145, 4 mM; for cytotoxicity at 5000 µM: DU-145, 5 mM; for cytotoxicity at 10000 µM: DU-145, 10 mM
Experimental: as §1

293 = test: MTT cytotoxicity assay, 293 kidney; format: cell-based; conditions: Homo sapiens, HEK293, 24 h, read-out: ED50 values of cytotoxicity
Experimental: as §1

Miapaca2 = test: MTT cytotoxicity assay, Miapaca2 pancreas; format: cell-based; conditions: Homo sapiens, read-out: Percent cytotoxicity; for cytotoxicity at 1000 µM: MIA PaCa-2, 1.0 mM; for cytotoxicity at 2500 µM: MIA PaCa-2, 2.5 mM; for cytotoxicity at 4000 µM: MIA PaCa-2, 4 mM; for cytotoxicity at 5000 µM: MIA PaCa-2, 5 mM; for cytotoxicity at 10000 µM: MIA PaCa-2, 10 mM
Experimental: as §1

Swiss albino mice = conditions: both, mouse, in vivo, po, 15 days
Experimental: Acute toxicity studies were performed using the oral route of administration.
A batch of 5 female and 5 male mice each was administered the test substance by oral route. […] Another batch of 5 female and 5 male served as control.
Observations were made three times on the day of dosing and twice daily thereafter for the remainder of 14 days or until reversible toxic signs or symptoms subsided. All gross visible toxic signs and symptoms were recorded. Body weights were recorded prior to dosing and weekly thereafter.

L132 = test: MTT cytotoxicity assay, L132 lung; format: cell-based; conditions: Homo sapiens, read-out: Percent cytotoxicity; for cytotoxicity at 1000 µM: 1.0 mM; for cytotoxicity at 2500 µM: 2.5 mM; for cytotoxicity at 4000 µM: 4 mM; for cytotoxicity at 5000 µM: 5 mM; for cytotoxicity at 10000 µM: 10 mM
Experimental: as §1

PA 1 = test: MTT cytotoxicity assay, PA 1 ovary; format: cell-based; conditions: Homo sapiens; for cytotoxicity at 1000 µM / cytotoxicity at 2500 µM / cytotoxicity at 4000 µM / cytotoxicity at 5000 µM / cytotoxicity at 10000 µM: PA 1 Ovary, read-out: Percent cytotoxicity; for cytotoxicity at 1000 µM: 1.0 mM; for cytotoxicity at 2500 µM: 2.5 mM; for cytotoxicity at 4000 µM: 4 mM; for cytotoxicity at 5000 µM: 5 mM; for cytotoxicity at 10000 µM: 10 mM
Experimental: as §1

MOLT 4 = test: MTT cytotoxicity assay, MOLT 4 leukemia; format: cell-based; conditions: Homo sapiens, MOLT 4 Leukemia, read-out: Percent cytotoxicity; for cytotoxicity at 1000 µM: 1.0 mM; for cytotoxicity at 2500 µM: 2.5 mM; for cytotoxicity at 4000 µM: 4 mM; for cytotoxicity at 5000 µM: 5 mM; for cytotoxicity at 10000 µM: 10 mM
Experimental: as §1

PTC = test: MTT cytotoxicity assay, PTC colon; format: cell-based; conditions: Homo sapiens, read-out: Percent cytotoxicity; for cytotoxicity at 1000 µM: 1.0 mM; for cytotoxicity at 2500 µM: 2.5 mM; for cytotoxicity at 4000 µM: 4 mM; for cytotoxicity at 5000 µM: 5 mM; for cytotoxicity at 10000 µM: 10 mM
Experimental: as §1

Row | SMILES | cytotoxicity at 1000 µM (MCF7) | cytotoxicity at 2500 µM (MCF7) | cytotoxicity at 4000 µM (MCF7) | cytotoxicity at 5000 µM (MCF7) | cytotoxicity at 10000 µM (MCF7) | cytotoxicity at 1000 µM (DU145) | cytotoxicity at 2500 µM (DU145) | cytotoxicity at 4000 µM (DU145) | cytotoxicity at 5000 µM (DU145) | cytotoxicity at 10000 µM (DU145) | cytotoxicity at 1000 µM (Miapaca2) | cytotoxicity at 2500 µM (Miapaca2) | cytotoxicity at 4000 µM (Miapaca2) | cytotoxicity at 5000 µM (Miapaca2) | cytotoxicity at 10000 µM (Miapaca2) | safe dose (Swiss albino mice) | cytotoxicity at 1000 µM (L132) | cytotoxicity at 2500 µM (L132) | cytotoxicity at 4000 µM (L132) | cytotoxicity at 5000 µM (L132) | further results
1 | CCOC(=O)C1CCC(=O)N1C(OC(C)=O)C(C)=O (centres unmarked) [MGC-8] | 16 ± 4.1% | 36 ± 3.5% | 70 ± 4.5% | 73 ± 6% | 87 ± 7% | 43 ± 3.8% | 67.4 ± 5.2% | 69.9 ± 7.9% | 73.5 ± 3% | 79.3 ± 1.9% | 0% | 61 ± 2.5% | 89 ± 4.5% | 88 ± 4.5% | 86 ± 5% | 100 mg | 8 ± 1.5% | 12 ± 3.3% | 25 ± 3.5% | 35 ± 4.1% | IC50 293: 2.9 ± 0.5 mM; cytotoxicity at 10000 µM (L132): 45 ± 5.1%; IC50 (PA 1; 24 h, PA 1 Ovarian, read-out: ED50 values of cytotoxicity): 1.8 ± 0.7 mM; cytotoxicity at 1000 µM (PA 1): 38 ± 3.7%; cytotoxicity at 2500 µM (PA 1): 56 ± 4.8%; cytotoxicity at 4000 µM (PA 1): 64.5 ± 5.3%; cytotoxicity at 5000 µM (PA 1): 69 ± 2.1%; cytotoxicity at 10000 µM (PA 1): 71.7 ± 6.3%; cytotoxicity at 1000 µM (MOLT 4): 40.3 ± 2.9%; cytotoxicity at 2500 µM (MOLT 4): 58.3 ± 4.9%; cytotoxicity at 4000 µM (MOLT 4): 65 ± 5.9%; cytotoxicity at 5000 µM (MOLT 4): 75.2 ± 2.9%; cytotoxicity at 10000 µM (MOLT 4): 81.9 ± 5.2%; cytotoxicity at 1000 µM (PTC): 32.2 ± 3.9%; cytotoxicity at 2500 µM (PTC): 48.6 ± 2.9%; cytotoxicity at 4000 µM (PTC): 67.7 ± 4.8%; cytotoxicity at 5000 µM (PTC): 76.3 ± 1%; cytotoxicity at 10000 µM (PTC): 79.6 ± 3%
2 | CC(=O)OC(C(C)=O)N1C(=O)CCC1C(=O)OCc1ccccc1 (centres unmarked) [MGC-6, N-(1-acetoxy-2-ketopropyl)-benzylpyroglutamate] | 0% | 0% | 0% | 13.9 ± 1.1% | 23.9 ± 2.9% | 37.8 ± 2.6% | 56.9 ± 4.2% | 78.9 ± 7.4% | 81.5 ± 7.3% | 85.9 ± 6.9% | 0% | 23.7 ± 2% | 51.9 ± 5.2% | 58.5 ± 5% | 67.4 ± 3% | 75 mg | 2.7 ± 0.2% | 34.8 ± 5.8% | 53.9 ± 5% | 67.9 ± 5% | cytotoxicity at 10000 µM (L132): 74.7 ± 7.3%; cytotoxicity at 1000 µM (PA 1): 42.9 ± 4.9%; cytotoxicity at 2500 µM (PA 1): 63.9 ± 4.9%; cytotoxicity at 4000 µM (PA 1): 86.9 ± 6.9%; cytotoxicity at 5000 µM (PA 1): 88.7 ± 5.9%; cytotoxicity at 10000 µM (PA 1): 84 ± 7.5%; cytotoxicity at 1000 µM (MOLT 4): 41.9 ± 4.2%; cytotoxicity at 2500 µM (MOLT 4): 61.9 ± 5.3%; cytotoxicity at 4000 µM (MOLT 4): 84.9 ± 7.4%; cytotoxicity at 5000 µM (MOLT 4): 84.8 ± 3.9%; cytotoxicity at 10000 µM (MOLT 4): 87.1 ± 6.8%; cytotoxicity at 1000 µM (PTC): 38.9 ± 3.9%; cytotoxicity at 2500 µM (PTC): 59.7 ± 5.3%; cytotoxicity at 4000 µM (PTC): 75.9 ± 4%; cytotoxicity at 5000 µM (PTC): 80.6 ± 7.4%; cytotoxicity at 10000 µM (PTC): 86.4 ± 4%
